# Source: patent publication US4684664A, “Derivatives of β-(4-isocyano-1,2,3,4-diepoxycyclopentyl) acrylic acid” (Kureha Kagaku Kogyo Kabushiki Kaisha, priority 1984, dated 1987)
# Tests used:
# Type in all cases: cell-based
# [1] = system: Staphylococcus aureus FDA 209PJc-1; experiment: Antibacterial activity, agar-dilution MIC, organism No. 1; details: Staphylococcus aureus, FDA209PJC1; Organism No. 1, bouillon-agar; read-out: Minimum Inhibitory Concentration
# How it was run: (§1)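 For each organism the specimen was serially diluted into bouillon agar, and inhibition was scored to give the MIC in μg/ml of culture medium.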
# [2] = system: Staphylococcus aureus Terajima; experiment: Antibacterial activity, agar-dilution MIC, organism No. 2; details: Staphylococcus aureus; Organism No. 2, bouillon-agar; read-out: Minimum Inhibitory Concentration
# How it was run: as §1
# [3] = system: Staphylococcus aureus MS 353; experiment: Antibacterial activity, agar-dilution MIC, organism No. 3; details: Staphylococcus aureus, MS353; Organism No. 3, bouillon-agar; read-out: Minimum Inhibitory Concentration
# How it was run: as §1
# [4] = system: Streptococcus pyogenes Cook; experiment: Antibacterial activity, agar-dilution MIC, organism No. 4; details: Streptococcus pyogenes; Organism No. 4, bouillon-agar; read-out: Minimum Inhibitory Concentration
# How it was run: as §1
# [5] = system: Escherichia coli NIHJ-JC-2; experiment: Antibacterial activity, agar-dilution MIC, organism No. 5; details: Escherichia coli, NIHJJC2; Organism No. 5, bouillon-agar; read-out: Minimum Inhibitory Concentration
# How it was run: as §1
# [6] = system: Escherichia coli K12 C600 IAM 1264; experiment: Antibacterial activity, agar-dilution MIC, organism No. 6; details: Escherichia coli, IAM1264; Organism No. 6, bouillon-agar; read-out: Minimum Inhibitory Concentration
# How it was run: as §1
# [7] = system: Klebsiella pneumoniae PCI-602; experiment: Antibacterial activity, agar-dilution MIC, organism No. 7; details: Klebsiella pneumoniae, PCI602; Organism No. 7, bouillon-agar; read-out: Minimum Inhibitory Concentration
# How it was run: as §1
# [8] = system: Salmonella typhimurium IID 971; experiment: Antibacterial activity, agar-dilution MIC, organism No. 8; details: Salmonella enterica; Organism No. 8, bouillon-agar; read-out: Minimum Inhibitory Concentration
# How it was run: as §1
# Salmonella typhi 901 = experiment: Antibacterial activity, agar-dilution MIC, organism No. 9; details: Salmonella enterica, TYPHI, read-out: Minimum Inhibitory Concentration
# How it was run: as §1
# [9] = system: Salmonella paratyphi-A 1015; experiment: Antibacterial activity, agar-dilution MIC, organism No. 10; details: Salmonella enterica, PARATYPHI, read-out: Minimum Inhibitory Concentration
# How it was run: as §1
# [10] = system: Salmonella shottmuelleri 8006; experiment: Antibacterial activity, agar-dilution MIC, organism No. 11; details: Salmonella, 8006; Organism No. 11, bouillon-agar; read-out: Minimum Inhibitory Concentration
# How it was run: as §1
# [11] = system: Salmonella enteritidis G 14; experiment: Antibacterial activity, agar-dilution MIC, organism No. 12; details: Salmonella enterica, ENTERITIDIS; Organism No. 12, bouillon-agar; read-out: Minimum Inhibitory Concentration
# How it was run: as §1
# [12] = system: Serratia marcescens IAM 1184; experiment: Antibacterial activity, agar-dilution MIC, organism No. 13; details: Serratia marcescens, IAM1184; Organism No. 13, bouillon-agar; read-out: Minimum Inhibitory Concentration
# How it was run: as §1
# [13] = system: Bacillus subtilis ATCC 6633; experiment: Antibacterial activity, agar-dilution MIC, organism No. 14; details: Bacillus subtilis, ATCC6633; Organism No. 14, bouillon-agar; read-out: Minimum Inhibitory Concentration
# How it was run: as §1
# [14] = system: Pseudomonas aeruginosa IFO 3445; experiment: Antibacterial activity, agar-dilution MIC, organism No. 15; details: Pseudomonas aeruginosa, IFO3445; Organism No. 15, bouillon-agar; read-out: Minimum Inhibitory Concentration
# How it was run: as §1
# [15] = system: Pseudomonas aeruginosa NCTC 10490; experiment: Antibacterial activity, agar-dilution MIC, organism No. 16; details: Pseudomonas aeruginosa, NCTC10490; Organism No. 16, bouillon-agar; read-out: Minimum Inhibitory Concentration
# How it was run: as §1
# [16] = system: Pseudomonas aeruginosa PAO 1; experiment: Antibacterial activity, agar-dilution MIC, organism No. 17; details: Pseudomonas aeruginosa, PAO1; Organism No. 17, bouillon-agar; read-out: Minimum Inhibitory Concentration
# How it was run: as §1
# [17] = system: Proteus morganii IFO 3848; experiment: Antibacterial activity, agar-dilution MIC, organism No. 18; details: Morganella morganii, IFO3848; Organism No. 18, bouillon-agar; read-out: Minimum Inhibitory Concentration
# How it was run: as §1
# [18] = system: Proteus mirabilis IFO 3849; experiment: Antibacterial activity, agar-dilution MIC, organism No. 19; details: Proteus mirabilis, IFO3849; Organism No. 19, bouillon-agar; read-out: Minimum Inhibitory Concentration
# How it was run: as §1
# Proteus vulgaris OX-19 = experiment: Antibacterial activity, agar-dilution MIC, organism No. 20; details: Proteus vulgaris, OX19; Organism No. 20, bouillon-agar; read-out: Minimum Inhibitory Concentration
# How it was run: as §1
# Proteus vulgaris HX-19 = experiment: Antibacterial activity, agar-dilution MIC, organism No. 21; details: Proteus vulgaris, HX19; Organism No. 21, bouillon-agar; read-out: Minimum Inhibitory Concentration
# How it was run: as §1
# [19] = system: Proteus rettgeri IFO 3850; experiment: Antibacterial activity, agar-dilution MIC, organism No. 22; details: Providencia rettgeri, IFO3850; Organism No. 22, bouillon-agar; read-out: Minimum Inhibitory Concentration
# How it was run: as §1
# [20] = system: Enterobacter aerogenes ATCC 13048; experiment: Antibacterial activity, agar-dilution MIC, organism No. 23; details: Klebsiella aerogenes, ATCC13048; Organism No. 23, bouillon-agar; read-out: Minimum Inhibitory Concentration
# How it was run: as §1
# Enterobacter cloacae 963 = experiment: Antibacterial activity, agar-dilution MIC, organism No. 24; details: Enterobacter cloacae, 963; Organism No. 24, bouillon-agar; read-out: Minimum Inhibitory Concentration
# How it was run: as §1
# [21] = system: Micrococcus luteus ATCC 9341; experiment: Antibacterial activity, agar-dilution MIC, organism No. 25; details: Micrococcus luteus, ATCC9341; Organism No. 25, bouillon-agar; read-out: Minimum Inhibitory Concentration
# How it was run: as §1
# [22] = system: Streptococcus pyogenes IFO 3340; experiment: Antibacterial activity, agar-dilution MIC, organism No. 26; details: Streptococcus pyogenes, IFO3340; Organism No. 26, bouillon-agar; read-out: Minimum Inhibitory Concentration
# How it was run: as §1
# [23] = system: Streptococcus faecium IFO 3826; experiment: Antibacterial activity, agar-dilution MIC, organism No. 27; details: Enterococcus faecium, IFO3826; Organism No. 27, bouillon-agar; read-out: Minimum Inhibitory Concentration
# How it was run: as §1
# [24] = system: Mycoplasma pneumoniae IID817; experiment: Antimycoplasmal activity, MIC by phenol red colour change, organism No. 28; details: Mycoplasma, IID817; Organism No. 28, PPLO broth + 1% glucose, 37° C.; read-out: Minimum Inhibitory Concentration (MIC)
# Experimental: Mycoplasma pneumoniae IID817 was used as the test microorganism in a culture medium prepared by adding 1% of glucose to "PPLO broth (manufactured by Difco Co.) liquid culture medium" at 37° C. with phenol red as an indicator, thereby culturing the test microorganism.
# [25] = system: Candida albicans IAM 4905; experiment: Antifungal activity, agar-dilution MIC, organism No. 29; details: Candida albicans, IAM4905; Organism No. 29, bouillon-agar; read-out: Minimum Inhibitory Concentration
# How it was run: as §1
# [26] = system: Aspergillus niger IFO 6342; experiment: Antifungal activity, agar-dilution MIC, organism No. 30; details: Aspergillus niger, IFO6342; Organism No. 30, bouillon-agar; read-out: Minimum Inhibitory Concentration
# How it was run: as §1
smiles,measurement,setting,value
[C-]#[N+]C12CC3(/C=C/C(=O)Nc4ccccc4OC)OC3C1O2 (stereo not drawn) [compound 55],MIC,[1],1.56 µg/mL
same,MIC,[2],3.13 µg/mL
same,MIC,[3],0.78 µg/mL
same,MIC,[4],200 µg/mL
same,MIC,[5],200 µg/mL
same,MIC,[6],200 µg/mL
same,MIC,[7],0.39 µg/mL
same,MIC,[8],50 µg/mL
same,MIC,Salmonella typhi 901,25 µg/mL
same,MIC,[9],12.5 µg/mL
same,MIC,[10],3.13 µg/mL
same,MIC,[11],12.5 µg/mL
same,MIC,[12],> 200 µg/mL
same,MIC,[13],25 µg/mL
same,MIC,[14],> 200 µg/mL
same,MIC,[15],> 200 µg/mL
same,MIC,[16],> 200 µg/mL
same,MIC,[17],6.25 µg/mL
same,MIC,[18],> 200 µg/mL
same,MIC,Proteus vulgaris OX-19,6.25 µg/mL
same,MIC,Proteus vulgaris HX-19,< 0.05 µg/mL
same,MIC,[19],> 200 µg/mL
same,MIC,[20],> 200 µg/mL
same,MIC,Enterobacter cloacae 963,> 200 µg/mL
same,MIC,[21],< 0.05 µg/mL
same,MIC,[22],6.25 µg/mL
same,MIC,[23],200 µg/mL
same,MIC,[24],< 0.2 µg/mL
same,MIC,[25],3.13 µg/mL
same,MIC,[26],12.5 µg/mL
[C-]#[N+]C12CC3(/C=C/C(=O)Nc4cccc(C(F)(F)F)c4)OC3C1O2 (stereo not drawn) [compound 47],MIC,[1],< 0.05 µg/mL
same,MIC,[2],0.2 µg/mL
same,MIC,[3],< 0.05 µg/mL
same,MIC,[4],200 µg/mL
same,MIC,[5],200 µg/mL
same,MIC,[6],200 µg/mL
same,MIC,[7],< 0.05 µg/mL
same,MIC,[8],3.13 µg/mL
same,MIC,Salmonella typhi 901,3.13 µg/mL
same,MIC,[9],3.13 µg/mL
same,MIC,[10],0.1 µg/mL
same,MIC,[11],3.13 µg/mL
same,MIC,[12],25 µg/mL
same,MIC,[13],0.78 µg/mL
same,MIC,[14],> 200 µg/mL
same,MIC,[15],> 200 µg/mL
same,MIC,[16],> 200 µg/mL
same,MIC,[17],< 0.05 µg/mL
same,MIC,[18],> 200 µg/mL
same,MIC,Proteus vulgaris OX-19,< 0.05 µg/mL
same,MIC,Proteus vulgaris HX-19,< 0.05 µg/mL
same,MIC,[19],50 µg/mL
same,MIC,[20],> 200 µg/mL
same,MIC,Enterobacter cloacae 963,> 200 µg/mL
same,MIC,[21],0.78 µg/mL
same,MIC,[22],0.39 µg/mL
same,MIC,[23],3.13 µg/mL
same,MIC,[24],< 0.2 µg/mL
same,MIC,[25],1.56 µg/mL
same,MIC,[26],3.13 µg/mL
"[C-]#[N+]C12CC3(/C=C/C(=O)O)OC3C1O2 (stereo not drawn) [α substituted acrylic acid, β-(4-isocyano-1,2-3,4-diepoxycyclopentyl)acrylic acid, reference compound]",MIC,[1],25 µg/mL
same,MIC,[2],50 µg/mL
same,MIC,[3],25 µg/mL
same,MIC,[4],25 µg/mL
same,MIC,[5],12.5 µg/mL
same,MIC,[6],12.5 µg/mL
same,MIC,[7],50 µg/mL
same,MIC,[8],12.5 µg/mL
same,MIC,Salmonella typhi 901,6.25 µg/mL
same,MIC,[9],12.5 µg/mL
same,MIC,[10],12.5 µg/mL
same,MIC,[11],3.13 µg/mL
same,MIC,[12],50 µg/mL
same,MIC,[13],25 µg/mL
same,MIC,[14],200 µg/mL
same,MIC,[15],200 µg/mL
same,MIC,[16],200 µg/mL
same,MIC,[17],12.5 µg/mL
same,MIC,[18],12.5 µg/mL
same,MIC,Proteus vulgaris OX-19,6.25 µg/mL
same,MIC,Proteus vulgaris HX-19,6.25 µg/mL
same,MIC,[19],50 µg/mL
same,MIC,[20],200 µg/mL
same,MIC,Enterobacter cloacae 963,100 µg/mL
same,MIC,[21],12.5 µg/mL
same,MIC,[22],6.25 µg/mL
same,MIC,[23],50 µg/mL
same,MIC,[24],< 0.2 µg/mL
same,MIC,[25],12.5 µg/mL
same,MIC,[26],25 µg/mL
[C-]#[N+]C12CC3(/C=C/C(N)=O)OC3C1O2 (stereo not drawn) [Compound No. 19],MIC,[1],6.25 µg/mL
same,MIC,[2],25 µg/mL
same,MIC,[3],6.25 µg/mL
same,MIC,[4],100 µg/mL
same,MIC,[5],6.25 µg/mL
same,MIC,[6],6.25 µg/mL
same,MIC,[7],12.5 µg/mL
same,MIC,[8],12.5 µg/mL
same,MIC,Salmonella typhi 901,1.56 µg/mL
same,MIC,[9],6.25 µg/mL
same,MIC,[10],12.5 µg/mL
same,MIC,[11],3.13 µg/mL
same,MIC,[12],50 µg/mL
same,MIC,[13],50 µg/mL
same,MIC,[14],100 µg/mL
same,MIC,[15],> 200 µg/mL
same,MIC,[16],200 µg/mL
same,MIC,[17],3.13 µg/mL
same,MIC,[18],50 µg/mL
same,MIC,Proteus vulgaris OX-19,3.13 µg/mL
same,MIC,Proteus vulgaris HX-19,1.56 µg/mL
same,MIC,[19],6.25 µg/mL
same,MIC,[20],100 µg/mL
same,MIC,Enterobacter cloacae 963,6.25 µg/mL
same,MIC,[21],25 µg/mL
same,MIC,[22],6.25 µg/mL
same,MIC,[23],100 µg/mL
same,MIC,[24],< 0.2 µg/mL
same,MIC,[25],12.5 µg/mL
same,MIC,[26],6.25 µg/mL
